Patent US20180311217A1, “METHODS OF TREATMENT AND COMPOSITIONS WITH XANTHINE OXIDASE INHIBITORS” (Takeda Pharmaceuticals U.S.A., Inc., priority 2013, published 2018)
Marks after values point to notes of the source that are not given here.

Legend:
[1] = system: hyperuricemic gout subjects with moderate to severe renal impairment; experiment: Example 1 randomized double-blind 12 month study: serum urate (sUA); type: in vivo, human
Source text: Randomization was stratified at baseline using 3 strata: subjects taking an angiotensin receptor blocker (ARB), subjects taking an angiotensin converting enzyme inhibitors (ACEi), or subjects not taking an ARB or an ACEi. […] Serum samples for the analysis of sUA were collected as part of the standard chemistry panel at the time points stipulated in Schedule of Study Procedures (Table 1). All samples were collected in accordance with standard laboratory procedures. Serum urate concentrations were determined using the enzymatic method as performed by the Central Laboratory and were blinded to the Sponsor and investigative site beginning at Day 1 through the Month 12/ET visits. Missing data in all efficacy analyses was imputed with the last available postbaseline observation carrying forward (LOCF). A subject was included in the analysis of a specific efficacy variable only when there was both a baseline value and at least 1 value during the double-blind treatment period. […] The percentage of subjects with sUA<6 mg/dL at Month 12 was summarized by treatment group, and the treatment groups were compared by a CMH test with prior use of an ARB or ACEi as a stratification variable. In addition, change from baseline and percent change from Baseline in sUA were summarized by visit and by treatment.

[2] = system: hyperuricemic gout subjects with moderate to severe renal impairment; experiment: Example 1 study: subjects experiencing gout flares; type: in vivo, human
Protocol: All subjects received colchicine 0.6 mg every other day (QOD) from the initial screening visit through the Month 6 visit only. Alternatively, if colchicine was not tolerated by the subject, prednisone may have been provided at the investigator's discretion in accordance with the stated guidelines listed under Prohibited Concomitant Medications.
All subjects were instructed to take colchicine 0.6 mg QOD for prophylaxis. Colchicine began at the Screening Day −21 visit for all subjects. Subjects received colchicine 0.6 mg QOD through the Month 6 visit.
Subjects were assessed for gout flares from the time the ICF was signed and throughout the duration of the study. Subjects were instructed to call the Investigator as soon as they thought they were having a gout flare. The Gout Flare Assessment Worksheet was completed by the site personnel (ie, study coordinator, study nurse, or the investigator).
Subjects were instructed to report the following information: the onset and end date of the flare, the kind of prophylaxis medication they were taking at the time of the event, whether or not the attack required medication (including type) and dates of treatment, the location of the flare, signs and symptoms regarding the flare including the severity, subjects' pain intensity (pain in rest), and the assessment of current gout flare compared to all previous gout flares in any joints. In addition, the subjects were asked an exploratory question in nature: the subject was asked during their current gout attack to indicate the degree of which the subject's physical mobility had been limited (on a scale of 0-10). The investigator reviewed the information provided and assessed whether or not they believed the subject experienced a gout flare and/or documented an alternative etiology.
Summary statistics for the number and percentage of subjects experiencing a gout flare were summarized by treatment group within the following intervals: Day 1 to Month 2 (Day 1 to 60), Month 2 to 4 (Day 61 to 120), Month 4 to 6 (Day 121 to 180), Month 6 to 8 (Day 181 to 240), Month 8 to 10 (Day 241 to 300), Month 10 to 12 (>day 301, and overall Day 1 to Month 6, and Month 6 to Month 12. All gout flares with onset after Day 301 (including those reported <30 days since last dose) were included in the Month 10 to 12 interval.

For `Cc1nc(-c2ccc(OCC(C)C)c(C#N)c2)sc1C(=O)O` [Febuxostat, 2-[3-cyano-4-(2-methylpropoxy)phenyl]-4-methylthiazole-5-carboxylic acid], the “Percentage of Subjects with sUA < 6.0 mg/dL” value ([1]; 30 mg BID, Day 14) was 71.9 (23/32) %, the “Percentage of Subjects with sUA < 6.0 mg/dL” value ([1]; 30 mg BID, Month 1) was 71.9 (23/32) % and the “Percentage of Subjects with sUA < 6.0 mg/dL” value ([1]; 30 mg BID, Month 3) was 78.1 (25/32) %. For the same compound, the “Percentage of Subjects with sUA < 6.0 mg/dL” value ([1]; 30 mg BID, Month 6) was 65.6 (21/32)* %, the “Serum urate change from Baseline, LS mean (SE)” value ([1]; 30 mg BID, Month 6) was −5.08 (0.304) mg/dL and the “Serum urate change from Baseline, LS mean difference (SE) from placebo group” value ([1]; 30 mg BID, Month 6) was −5.15 (0.428) mg/dL. For the same compound, the “Percentage of Subjects with sUA < 6.0 mg/dL” value ([1]; 30 mg BID, Month 9) was 68.8 (22/32) %, the “Percentage of Subjects with sUA < 6.0 mg/dL” value ([1]; 30 mg BID, Month 12) was 68.8 (22/32)* % and the “Serum urate change from Baseline, LS mean (SE)” value ([1]; 30 mg BID, Month 12) was −4.97 (0.318) mg/dL. For the same compound, the “Serum urate change from Baseline, LS mean difference (SE) from placebo group” value ([1]; 30 mg BID, Month 12) was −4.82 (0.447) mg/dL, the “Serum urate change from Baseline, LS mean (SE)” value ([1]; 30 mg BID, Month 12, listed as febuxostat) was -4.97 mg/dL and the “Percentage of Subjects with sUA < 6.0 mg/dL” value ([1]; 40/80 mg QD, Day 14) was 33.3 (10/30) %. For the same compound, the “Percentage of Subjects with sUA < 6.0 mg/dL” value ([1]; 40/80 mg QD, Month 1) was 35.5 (11/31) %, the “Percentage of Subjects with sUA < 6.0 mg/dL” value ([1]; 40/80 mg QD, Month 3) was 58.1 (18/31) % and the “Percentage of Subjects with sUA < 6.0 mg/dL” value ([1]; 40/80 mg QD, Month 6) was 51.6 (16/31)* %. The “Serum urate change from Baseline, LS mean (SE)” value ([1]; 40/80 mg QD, Month 6) was −4.29 (0.309) mg/dL, the “Serum urate change from Baseline, LS mean difference (SE) from placebo group” value ([1]; 40/80 mg QD, Month 6) was −4.36 (0.431) mg/dL and the “Percentage of Subjects with sUA < 6.0 mg/dL” value ([1]; 40/80 mg QD, Month 9) was 58.1 (18/31) %. For the same compound, the “Percentage of Subjects with sUA < 6.0 mg/dL” value ([1]; 40/80 mg QD, Month 12) was 45.2 (14/31)* %, the “Serum urate change from Baseline, LS mean (SE)” value ([1]; 40/80 mg QD, Month 12) was −4.17 (0.323) mg/dL and the “Serum urate change from Baseline, LS mean difference (SE) from placebo group” value ([1]; 40/80 mg QD, Month 12) was −4.02 (0.451) mg/dL. The “Serum urate change from Baseline, LS mean (SE)” value ([1]; 40/80 mg QD, Month 12, listed as febuxostat) was -4.17 mg/dL, the “Percentage of Subjects With Gout Flares” value ([2]; 30 mg BID, 2 to ≤4 months) was “(10.7) %” and the “Percentage of Subjects With Gout Flares” value ([2]; 30 mg BID, 4 to ≤6 months) was “(14.3) %”. For the same compound, the “Percentage of Subjects With Gout Flares” value ([2]; 30 mg BID, 4 to ≤6 months, listed as febuxostat) was 14.3%, the “Percentage of Subjects With Gout Flares” value ([2]; 30 mg BID, 6 to ≤8 months (after prophylaxis ended)) was “(26.3) %” and the “Percentage of Subjects With Gout Flares” value ([2]; 30 mg BID, 6 to ≤8 months (after prophylaxis ended), listed as febuxostat) was 26.3%. The “Percentage of Subjects With Gout Flares” value ([2]; 30 mg BID, 8 to ≤10 months) was “(5.9) %”, the “Percentage of Subjects With Gout Flares” value ([2]; 30 mg BID, 10 to ≤12 months) was “(11.8) %” and the “Percentage of Subjects With Gout Flares” value ([2]; 30 mg BID, Day 1 to Month 6) was “(28.1)* %”. For the same compound, the “Percentage of Subjects With Gout Flares” value ([2]; 30 mg BID, Day 1 to Month 6, listed as febuxostat) was 28.1%, the “Percentage of Subjects With Gout Flares” value ([2]; 30 mg BID, Month 6 to Month 12) was “(31.6)* %” and the “Percentage of Subjects With Gout Flares” value ([2]; 30 mg BID, Month 6 to Month 12, listed as febuxostat) was 31.6%. The “Percentage of Subjects With Gout Flares” value ([2]; 30 mg BID, ≤2 months) was “(18.8)* %”, the “Increase of percentage of subjects with at least one gout flare, months 6 to ≤8 relative to months 4 through 6” value ([2]; 30 mg IR BID) was 84% and the “Increase of percentage of subjects with at least one gout flare, months 6 to ≤8 relative to months 4 through 6” value ([2]; 40/80 mg IR QD) was 279%. The “Percentage of Subjects With Gout Flares” value ([2]; 40/80 mg QD, 2 to ≤4 months) was “(27.6) %”, the “Percentage of Subjects With Gout Flares” value ([2]; 40/80 mg QD, 4 to ≤6 months) was “(17.9) %” and the “Percentage of Subjects With Gout Flares” value ([2]; 40/80 mg QD, 4 to ≤6 months, listed as febuxostat) was 17.9%. The “Percentage of Subjects With Gout Flares” value ([2]; 40/80 mg QD, 6 to ≤8 months (after prophylaxis ended)) was “(50.0) %”, the “Percentage of Subjects With Gout Flares” value ([2]; 40/80 mg QD, 6 to ≤8 months (after prophylaxis ended), listed as febuxostat) was 50.0% and the “Percentage of Subjects With Gout Flares” value ([2]; 40/80 mg QD, 8 to ≤10 months) was “(22.2) %”. For the same compound, the “Percentage of Subjects With Gout Flares” value ([2]; 40/80 mg QD, 10 to ≤12 months) was “(23.1) %”, the “Percentage of Subjects With Gout Flares” value ([2]; 40/80 mg QD, Day 1 to Month 6) was “(56.3) %” and the “Percentage of Subjects With Gout Flares” value ([2]; 40/80 mg QD, Day 1 to Month 6, listed as febuxostat) was 56.3%. The “Percentage of Subjects With Gout Flares” value ([2]; 40/80 mg QD, Month 6 to Month 12) was “(64.3) %”, the “Percentage of Subjects With Gout Flares” value ([2]; 40/80 mg QD, Month 6 to Month 12, listed as febuxostat) was 64.3% and the “Percentage of Subjects With Gout Flares” value ([2]; 40/80 mg QD, ≤2 months) was “(50.0) %”.
